Source: US20220195386A1, “COMPOSITIONS AND METHODS FOR MAKING SENSORY NEURONS” (University of Georgia Research Foundation, Inc., priority 2020, published 2022)

test system: hESC-derived SNs; experiment: Multi-electrode array (MEA) recording of SN firing after incubation with nociceptor agonists; type: cell-based, human; conditions: titrated, incubated for 1 min before data acquisition; 5 min recordings; normalized to untreated control (basal); FIG. 2K
Procedure: Experiments were performed using a Maestro Pro (Axion Biosystems) MEA system. CytoView MEA 96 plates containing 8 embedded electrodes/well were coated with PO/LM/FN 448 and seeded with NCCs (day 6 or 12) or SNs (day 30). Repeated recordings were made every 5 days at 37° C. with a sampling frequency of 12.5 kHz for 5 min. Recordings from at least 6 wells were averaged per reading. Bursts were detected using Inter-Spike Interval (ISI). Capsaicin, WIN 55,212 and Pregnenolone were titrated and incubated for 1 min before data acquisition. Hypoosomotic media was obtained by mixing Sensory neuron media with sterile water in a 45:55 ratio, treatment was done for 1 min.

Molecule	firing rate of SNs (MEA)
Cc1c(C(=O)c2cccc3ccccc23)c2cccc3c2n1[C@H](CN1CCOCC1)CO3 [WIN 55, 212-2]	increased firing rate
COc1cc(CNC(=O)CCCC/C=C/C(C)C)ccc1O [capsaicin]	increased firing rate
CC(=O)[C@H]1CC[C@H]2[C@@H]3CC=C4C[C@@H](O)CC[C@]4(C)[C@H]3CC[C@]12C [pregnenolone]	increased firing rate

test system: SNs differentiated from NCCs replated on day 12; experiment: SN subtype enrichment with growth factors, TRKA/TRKB/TRKC quantified by flow cytometry (FACS) on day 20; type: cell-based, human; conditions: NCCs replated day 12 in SN differentiation media containing GDNF and the indicated growth factor; FACS analysis on day 20; FIG. 7B
Text: FIGS. 7A-7G illustrates strategies for SN subtype enrichment (related to FIGS. 3A-3F). FIG. 7A is a schematic of an initial approach. On day 12 of differentiation, NCCs were replated using SN differentiation media containing GDNF and the indicated growth factors and analyzed by flow cytometry. FIG. 7B is a bar graph showing quantification of SNs differentiated using enrichment media as indicated on 7A. SNs were stained with TRKA, TRKB and TRKC antibodies and quantified by flow cytometry. DAPI was used as viability dye. FIGS. 7C-7F are a series of scatter plots showing identification (7C) of subpopulation of noci- (7D), mechano- (7E), and proprioceptor (7F) enrichment by flow cytometry. Side scatter and forward scatter showing gated areas where each subtype is enriched and the percentages of each subpopulation are shown. FIG. 7G is a bar graph showing NGN2 and NGN1 waves are present during SN differentiation. RNA from SN-biased NCCs was obtained on each indicated day and NGN1 and NGN2 expression was measured by RT-qPCR. In all experiments N>4. Graphs show mean±S.D.
Cells were dissociated with Accutase for 20 min and then washed in Flow buffer: DMEM 2% FBS and 1 mM L-glutamine. Cells were centrifuged at 200 g for 4 min and resuspended in cold PBS, they were counted and diluted to a concentration of 1×10^6 cells/100 μL and incubated for 20 min (CD49d) or 1 h (TRKA, B and C) with conjugated antibody. Cells were then washed twice in Flow buffer, and incubated with DAPI (1:1,000) in 300 μL of Flow buffer for 5 mins. Cells were filtered and transferred to a 96-well plate. Samples were run using a Cytoflex S (Beckman). All subsequent analysis was done using FlowJo.
Contrary to previous reports (Alshawaf, et al., Scientific Reports 8, 603 (2018), Chambers, et al., Nat. Biotechnol. 30, 715-720 (2012), Schrenk-Siemens, et al., Nat. Neurosci. 18, 10-550 16 (2015)), the investigated protocol generates all three SN subtypes (FIG. 1H, 1I). Thus, methods to enrich distinct SN subtypes from bulk cultures were investigated. […]

Molecule	SN subtype enrichment (TRKA, TRKB, TRKC by FACS)
BDNF: Brain-derived neurotrophic factor, binds to TRKB; used to promote differentiation of mechanoreceptors	no subtype enrichment
NGF: Nerve growth factor, binds to TRKA; used to promote differentiation of nociceptors	no subtype enrichment
NT-3: Neurotrophin-3, binds to TRKC; used to promote differentiation of proprioceptors (protein, UniProt P20783 139-257, looked up) Neurotrophin-3: YAEHKSHRGEYSVCDSESLWVTDKSSAIDIRGHQVTVLGEIKTGNSPVKQYFYETRCKEARPVKNGCRGIDDKHWNSQCKTSQTYVRALTSENNKLVGWRWIRIDTSCVCALSRKIGRT	no subtype enrichment
